Measurements published in patent publication US12569510B2, “Antiviral prodrugs and pharmaceutical compositions thereof” (THE SCRIPPS RESEARCH INSTITUTE, priority 2019, dated 2026).
≈ marks a conversion by molar mass, not a printed value. Like-named read-outs stand apart in the source and are kept apart here.

Assays:
[1] = Aqueous solubility (pH 7.4); assay type: physicochemical
[2] = Stability of aqueous suspension, 2 weeks at 40° C./75% relative humidity (XPRD); assay type: physicochemical; conditions: aqueous 0.25% CMC-Na/0.5% TWEEN-80 suspension
Procedure: LC-MS (ESI+): m/z 502.41 [M+H]^+. About 275 mg/g of Compound 6 was suspended in aqueous 0.25% CMC-Na/0.5% TWEEN-80 (26 gauge syringeability) and was subjected to stability for 2 weeks at 40° C./75% relative humidity.

[3] = SC rat PK: EFdA plasma levels; conditions: for half life and mean residence life compared with EFdA: SC, 100 mg/kg EFdA equivalent; for Cmax compared with EFdA / duration of plasma levels of EFdA above lower limit of quantitation (LLOQ): single SC dose, 10 mg/kg EFdA equivalent, 4 mg/mL
Procedure: (§1) • Animals: Animals (Male SD rats ˜200-250 g and Male rhesus macaques ˜2-3 kg) were obtained from an approved vendor (SLAC Laboratory Animal Co. Ltd., Shanghai, China and/or Topgene Biotechnology, Wuhan city, Hubei Province, China). • Acclimation/Quarantine: Following arrival, animals were assessed as to their general health by a member of the veterinary staff or other authorized personnel. Animals were acclimated for at least 3 days before being placed on study. • Animal Husbandry: Animals were group housed during acclimation and individually housed during the study. The animal room environment will be controlled (target conditions: temperature 18 to 26° C., relative humidity 30 to 70%, 12 hours artificial light and 12 hours dark). Temperature and relative humidity were monitored daily. • Animal Cannulation: No
(§2) Animals were fasted at least 12 hours prior to the administration. All animals had access to Certified Rodent and non-Rodent Diet (Catalog #M01-F, SLAC Laboratory Animal Cl. Ltd., Shanghai, China) ad libitum 4 hours post dosing.
Animals were dosed within four hours of suspension preparation. Two 20 μL aliquots of each prepared suspension were transferred into 1.5 mL of polypropylene microcentrifuge tubes and dose validation was run by LC/UV or LC-MS/MS.
The suspensions were administered via subcutaneous injection (SC) following facility standard operations procedures (SOPs).
Approximately 200 μL blood was collected from saphenous vein at each time point for rats and 0.5 mL for rhesus macaques. All blood samples were transferred into microcentrifuge tubes containing 4 μL of K2EDTA (0.5M) as anti-coagulant and placed on wet ice until processed for plasma.
Blood: Blood samples were processed for plasma by centrifugation at approximately 4° C., 3000 g 15 min within half an hour of collection. Plasma samples was stored in polypropylene tubes, quick frozen over dry ice and kept at −70±10° C. until LC/MS/MS analysis.
If the carryover couldn't meet the criteria, then the percent of carryover should be estimated following in-house bioanalytical SOP. 6. Data Analysis
Plasma concentration versus time data was analyzed by non-compartmental approaches using the Phoenix WinNonlin 6.3 software program. Cmax, Tmax, T1/2, AUC(0-t), AUC(0-inf), MRT(0-t), MRT(0-inf), % F and graphs of plasma concentration versus time profile were generated.
Several prodrugs including EFdA (1) as a control were subjected to a single dose rat PK studies via subcutaneous route of administration. All animals were injected with equivalent doses of 10 mg/kg and concentration of 4 mg/mL of EFdA as an aqueous suspension in 0.5% CMC-Na and 0.5% TWEEN-80.
After optimization, SC rat PK studies were performed again with high equivalent dose of 100 mg/kg at equivalent concentration of 120 mg/mL for Compound 3, 116 mg/mL for Compound 5, and 319 mg/mL of EFdA, respectively.

[4] = SC rhesus PK: EFdA plasma levels; conditions: rhesus macaque, single SC dose, 50 mg/kg EFdA equivalent
Procedure: as §1, §2
Animals were dosed within four hours of suspension preparation. […]
Plasma concentration versus time data was analyzed by non-compartmental approaches using the Phoenix WinNonlin 6.3 software program. […]

[5] = Optimization of surfactant concentration in Compound 5 suspension (syringeability, viscosity, flow, resuspension); assay type: physicochemical; set-up: key to Flow: + No Flow; ++ Less Flow; +++ Good Flow; ++++ Very Good Flow; key to Viscosity: ++++ Slightly Viscous; +++ Viscous; ++ Very Viscous; + Semisolid; key to Syringeability (26 G): ✓: Syringeable; conditions: 400 mg/gm Compound 5, after 10 days of storage
Procedure: The concentration of surfactant was optimized with 0.3% and 0.5% of methyl cellulose in a formation containing 400 mg/gm of micronized Compound 5. Formulations were prepared with different concentrations of TWEEN-80 (0.1, 0.2 and 0.3%).

[6] = aqueous medium at pH 7.4, pH 7.4, aqueous buffer, read-out: Aqueous solubility (pH 7.4)
[7] = 0.3% Methyl Cellulose, 0.1% TWEEN-80
[8] = 0.3% Methyl Cellulose, 0.2% TWEEN-80
[9] = 0.3% Methyl Cellulose, 0.3% TWEEN-80
[10] = 0.5% Methyl Cellulose, 0.1% TWEEN-80
[11] = 0.5% Methyl Cellulose, 0.2% TWEEN-80
[12] = 0.5% Methyl Cellulose, 0.3% TWEEN-80

C#C[C@]1(COC(=O)c2ccccc2)O[C@@H](n2cnc3c(N)nc(F)nc32)C[C@@H]1OC(=O)c1ccccc1 [Compound 6, (2R,3S,5R)-5-(6-amino-2-fluoro-9H-purin-9-yl)-2-((benzoyloxy)methyl)-2-ethynyl tetrahydrofuran-3-yl benzoate]
solubility [1, 6]: < 2 µg/mL | crystallinity in suspension (XPRD) [2]: retains good crystallinity in suspension

C#C[C@]1(COC(=O)Cc2ccccc2)O[C@@H](n2cnc3c(N)nc(F)nc32)C[C@@H]1OC(=O)Cc1ccccc1 [Compound 5, (2R,3S,5R)-5-(6-amino-2-fluoro-9H-purin-9-yl)-2-ethynyl-2-((2-phenylacetoxy)methyl)tetrahydrofuran-3-yl 2-phenylacetate]
half life and mean residence life compared with EFdA [3]: Enhanced half life and mean residence life | Cmax compared with EFdA [3]: much lower than for EFdA | duration of plasma levels of EFdA above lower limit of quantitation (LLOQ) [3]: more than a week | duration of plasma levels of EFdA above LLOQ [4]: more than a month | Flow [5, 7]: ++++ | Syringeability (26 G) [5, 7]: ✓ | Time Taken to Resuspend [5, 7]: 2.2 min | Viscosity [5, 7]: ++++ | Flow [5, 8]: ++++ | Syringeability (26 G) [5, 8]: ✓ | Time Taken to Resuspend [5, 8]: 2.5 min | Viscosity [5, 8]: ++++ | Flow [5, 9]: ++++ | Syringeability (26 G) [5, 9]: ✓ | Time Taken to Resuspend [5, 9]: 2.3 min | Viscosity [5, 9]: ++++ | Flow [5, 10]: ++++ | Syringeability (26 G) [5, 10]: ✓ | Time Taken to Resuspend [5, 10]: 2.5 min | Viscosity [5, 10]: ++++ | Flow [5, 11]: ++++ | Syringeability (26 G) [5, 11]: ✓ | Time Taken to Resuspend [5, 11]: 2.5 min | Viscosity [5, 11]: ++++ | Flow [5, 12]: ++++ | Syringeability (26 G) [5, 12]: ✓ | Time Taken to Resuspend [5, 12]: 3.0 min | Viscosity [5, 12]: ++++

C#C[C@]1(COC(=O)C2CCCC2)O[C@@H](n2cnc3c(N)nc(F)nc32)C[C@@H]1OC(=O)C1CCCC1 [Compound 4, (2R,3S,5R)-5-(6-amino-2-fluoro-9H-purin-9-yl)-2-(((cyclopentanecarbonyl)oxy)methyl)-2-ethynyltetrahydrofuran-3-yl cyclopentanecarboxylate]
solubility [1, 6]: < 1 µg/mL

C#C[C@]1(COC(=O)C(CC)CC)O[C@@H](n2cnc3c(N)nc(F)nc32)C[C@@H]1OC(=O)C(CC)CC [Compound 3, (2R,3S,5R)-5-(6-amino-2-fluoro-9H-purin-9-yl)-2-(((2-ethylbutanoyl)oxy)methyl)-2-ethynyltetrahydrofuran-3-yl 2-ethylbutanoate]
half life and mean residence life compared with EFdA [3]: Enhanced half life and mean residence life | Cmax compared with EFdA [3]: much lower than for EFdA | duration of plasma levels of EFdA above lower limit of quantitation (LLOQ) [3]: more than a week

C#C[C@]1(COC(=O)C(C)C)O[C@@H](n2cnc3c(N)nc(F)nc32)C[C@@H]1OC(=O)C(C)C [Compound 2, (2R,3S,5R)-5-(6-amino-2-fluoro-9H-purin-9-yl)-2-ethynyl-2-((isobutyryloxy)methyl)tetrahydrofuran-3-yl isobutyrate]
crystallinity in suspension (XPRD) [2]: retains good crystallinity in suspension | Cmax compared with EFdA [3]: much lower than for EFdA | duration of plasma levels of EFdA above lower limit of quantitation (LLOQ) [3]: more than a week

C#C[C@]1(CO)O[C@@H](n2cnc3c(N)nc(F)nc32)C[C@@H]1O [Compound 1, 4′-Ethynyl-2-fluoro-2′-deoxyadenosine, reference compound]
solubility ([1]; aqueous medium at physiological pH, pH 7.4, aqueous buffer, read-out: aqueous solubility at physiological pH): 877 µg/mL (≈ 2990 µM)
